Measurements taken from article PMC5218480 (PLoS ONE, 2017).

Tested on: MV-4-11 cells
Test: Gene expression microarray analysis (Affymetrix PrimeView) and GSEA
Type: cell-based, human
Set-up: RFU PODN (11730768_x_at) / Fold change /veh PODN (11730768_x_at) / RFU LINC00158 (11744669_a_at) / Fold change /veh LINC00158 (11744669_a_at) / RFU DUSP10 (11751237_a_at) / Fold change /veh DUSP10 (11751237_a_at) / RFU ID3 (11757404_x_at) / Fold change /veh ID3 (11757404_x_at) / RFU PLEKHG5 (11737974_s_at) / Fold change /veh PLEKHG5 (11737974_s_at) / RFU LRRC4B (11730491_at) / Fold change /veh LRRC4B (11730491_at) / RFU GIMAP4 (11747438_a_at) / Fold change /veh GIMAP4 (11747438_a_at) / RFU KRT8 (11758183_x_at) / Fold change /veh KRT8 (11758183_x_at) / RFU CNN1 (11734310_a_at) / Fold change /veh CNN1 (11734310_a_at) / RFU VPS37D (11726825_at) / Fold change /veh VPS37D (11726825_at) / RFU C10orf10 (11716522_x_at) / Fold change /veh C10orf10 (11716522_x_at) / RFU KIR2DL2 /// KIR2DL4 /// KIR2DL5A /// KIR2DL5B /// KIR2DS1 /// KIR2DS2 /// KIR2DS3 /// KIR2DS4 /// KIR3DL3 /// KIR3DL3 /// KIR3DS1 (11738374_at) / Fold change /veh KIR2DL2 /// KIR2DL4 /// KIR2DL5A /// KIR2DL5B /// KIR2DS1 /// KIR2DS2 /// KIR2DS3 /// KIR2DS4 /// KIR3DL3 /// KIR3DL3 /// KIR3DS1 (11738374_at) / RFU C1QL1 (11718748_at) / Fold change /veh C1QL1 (11718748_at) / RFU TMPRSS4 (11747572_a_at) / Fold change /veh TMPRSS4 (11747572_a_at) / RFU HAMP (11756126_x_at) / Fold change /veh HAMP (11756126_x_at) / RFU RNFT2 (11725882_a_at) / Fold change /veh RNFT2 (11725882_a_at) / RFU NR4A2 (11747474_a_at) / Fold change /veh NR4A2 (11747474_a_at) / RFU ABCC12 (11746883_a_at) / Fold change /veh ABCC12 (11746883_a_at) / RFU TMEM136 (11760407_x_at) / Fold change /veh TMEM136 (11760407_x_at) / RFU CLDN22 /// WWC2 (11732394_at) / Fold change /veh CLDN22 /// WWC2 (11732394_at) / RFU HLA-DPB1 (11760878_x_at) / Fold change /veh HLA-DPB1 (11760878_x_at) / RFU SPINT1 (11716480_a_at) / Fold change /veh SPINT1 (11716480_a_at) / RFU GAP43 (11754022_s_at) / Fold change /veh GAP43 (11754022_s_at) / RFU A4GNT (11735810_at) / Fold change /veh A4GNT (11735810_at) / RFU PRB3 (11715151_x_at) / Fold change /veh PRB3 (11715151_x_at) / RFU TUBB4B (11761932_at) / Fold change /veh TUBB4B (11761932_at) / RFU CAPN14 (11732068_a_at) / Fold change /veh CAPN14 (11732068_a_at) / RFU TMCC2 (11721928_a_at) / Fold change /veh TMCC2 (11721928_a_at) / RFU IRGQ (11745062_a_at) / Fold change /veh IRGQ (11745062_a_at) / RFU FAM174B (11720279_a_at) / Fold change /veh FAM174B (11720279_a_at) / RFU TMPRSS4 (11748680_a_at) / Fold change /veh TMPRSS4 (11748680_a_at) / RFU FAM212B (11763350_a_at) / Fold change /veh FAM212B (11763350_a_at) / RFU PLEKHG5 (11743358_a_at) / Fold change /veh PLEKHG5 (11743358_a_at) / RFU ZSCAN30 (11745921_a_at) / Fold change /veh ZSCAN30 (11745921_a_at) / RFU CMKLR1 (11741424_a_at) / Fold change /veh CMKLR1 (11741424_a_at) / RFU LOC101060620 /// MAPK8IP1 (11723275_at) / Fold change /veh LOC101060620 /// MAPK8IP1 (11723275_at) / RFU SPTSSB (11747773_x_at) / Fold change /veh SPTSSB (11747773_x_at) / RFU PRSS12 (11739890_at) / Fold change /veh PRSS12 (11739890_at) / RFU BIN1 (11741810_x_at) / Fold change /veh BIN1 (11741810_x_at) / RFU WNT11 (11732464_a_at) / Fold change /veh WNT11 (11732464_a_at) / RFU C10orf10 (11716521_a_at) / Fold change /veh C10orf10 (11716521_a_at) / RFU C5orf56 (11738089_at) / Fold change /veh C5orf56 (11738089_at) / RFU CYB561 (11721691_x_at) / Fold change /veh CYB561 (11721691_x_at) / RFU ANKRD19P (11752326_a_at) / Fold change /veh ANKRD19P (11752326_a_at) / RFU OR2T12 /// OR2T33 /// OR2T8 (11738714_s_at) / Fold change /veh OR2T12 /// OR2T33 /// OR2T8 (11738714_s_at) / RFU VCAN (11748164_a_at) / Fold change /veh VCAN (11748164_a_at) / RFU JSRP1 (11732532_at) / Fold change /veh JSRP1 (11732532_at) / RFU KRTAP10-11 (11738290_x_at) / Fold change /veh KRTAP10-11 (11738290_x_at) / RFU MYO3A (11730013_a_at) / Fold change /veh MYO3A (11730013_a_at) / RFU EBF3 (11725865_a_at) / Fold change /veh EBF3 (11725865_a_at) / RFU CAMK2N1 (11719241_x_at) / Fold change /veh CAMK2N1 (11719241_x_at) / RFU C5orf56 (11738088_a_at) / Fold change /veh C5orf56 (11738088_a_at) / RFU OLFML3 (11715873_a_at) / Fold change /veh OLFML3 (11715873_a_at) / RFU LOC100653217 /// NTM (11731650_a_at) / Fold change /veh LOC100653217 /// NTM (11731650_a_at) / RFU MAPK11 (11762145_a_at) / Fold change /veh MAPK11 (11762145_a_at) / RFU FIZ1 (11724087_x_at) / Fold change /veh FIZ1 (11724087_x_at) / RFU OASL (11726364_x_at) / Fold change /veh OASL (11726364_x_at) / RFU SOX15 (11748057_x_at) / Fold change /veh SOX15 (11748057_x_at) / RFU CD79A (11719716_a_at) / Fold change /veh CD79A (11719716_a_at) / RFU HIST1H1D (11736915_at) / Fold change /veh HIST1H1D (11736915_at) / RFU CASKIN2 (11723855_a_at) / Fold change /veh CASKIN2 (11723855_a_at) / RFU LOC730098 (11760151_x_at) / Fold change /veh LOC730098 (11760151_x_at) / RFU OR4N2 (11742367_at) / Fold change /veh OR4N2 (11742367_at) / RFU PRRT2 (11749266_a_at) / Fold change /veh PRRT2 (11749266_a_at) / RFU SNX32 (11753110_a_at) / Fold change /veh SNX32 (11753110_a_at) / RFU CDHR5 (11726645_a_at) / Fold change /veh CDHR5 (11726645_a_at) / RFU RCAN1 (11760418_a_at) / Fold change /veh RCAN1 (11760418_a_at) / RFU FAM167A (11723789_a_at) / Fold change /veh FAM167A (11723789_a_at) / RFU FAM26E (11764081_at) / Fold change /veh FAM26E (11764081_at) / RFU ISYNA1 (11749810_s_at) / Fold change /veh ISYNA1 (11749810_s_at) / RFU ACY1 (11761880_at) / Fold change /veh ACY1 (11761880_at) / RFU 11764098_at / Fold change /veh 11764098_at / RFU SAMD14 (11745864_x_at) / Fold change /veh SAMD14 (11745864_x_at) / RFU NPB (11741838_a_at) / Fold change /veh NPB (11741838_a_at) / RFU TMPRSS6 (11731388_a_at) / Fold change /veh TMPRSS6 (11731388_a_at) / RFU KRTAP10-2 (11738614_at) / Fold change /veh KRTAP10-2 (11738614_at) / RFU ARHGAP8 /// PRR5-ARHGAP8 (11727945_x_at) / Fold change /veh ARHGAP8 /// PRR5-ARHGAP8 (11727945_x_at) / RFU KRTAP5-7 /// NADSYN1 (11734609_at) / Fold change /veh KRTAP5-7 /// NADSYN1 (11734609_at) / RFU RASL12 (11751679_a_at) / Fold change /veh RASL12 (11751679_a_at) / RFU CDKN2B (11736163_a_at) / Fold change /veh CDKN2B (11736163_a_at) / RFU PRF1 (11729649_at) / Fold change /veh PRF1 (11729649_at) / RFU, ZNF638 /// ZNF638-IT1 / Fold change vs veh, ZNF638 /// ZNF638-IT1 / RFU, PANK3 / Fold change vs veh, PANK3 / RFU, SH3YL1 / Fold change vs veh, SH3YL1 / RFU, ZEB2 / Fold change vs veh, ZEB2 / RFU, NRIP1 / Fold change vs veh, NRIP1 / RFU, PTTG1IP / Fold change vs veh, PTTG1IP / RFU, CAPN2 / Fold change vs veh, CAPN2 / RFU, MED14 / Fold change vs veh, MED14 / RFU, SNORA58 / Fold change vs veh, SNORA58 / RFU, C1orf63 / Fold change vs veh, C1orf63 / RFU, LRRFIP1 / Fold change vs veh, LRRFIP1 / RFU, NDUFAF7 / Fold change vs veh, NDUFAF7 / RFU, SLC12A2 / Fold change vs veh, SLC12A2 / RFU, IBTK / Fold change vs veh, IBTK / RFU, ESF1 / Fold change vs veh, ESF1 / Fold change vs veh, TMEM50B / RFU, TAOK1 / Fold change vs veh, TAOK1 / RFU, ACBD3 / Fold change vs veh, ACBD3 / RFU, TMA16 / Fold change vs veh, TMA16 / RFU, RWDD3 / Fold change vs veh, RWDD3 / RFU, BCAT1 / Fold change vs veh, BCAT1 / RFU, EDEM3 / Fold change vs veh, EDEM3 / RFU, TMEM33 / Fold change vs veh, TMEM33 / RFU, WDR75 / Fold change vs veh, WDR75 / RFU, AHCTF1 / Fold change vs veh, AHCTF1 / RFU, TFRC / Fold change vs veh, TFRC / RFU, ZDHHC17 / Fold change vs veh, ZDHHC17 / RFU, NOM1 / Fold change vs veh, NOM1 / RFU, ARL8B / Fold change vs veh, ARL8B / RFU, ZBTB11 / Fold change vs veh, ZBTB11 / RFU, TAMM41 / Fold change vs veh, TAMM41 / RFU, KIAA1704 /// LOC100996395 / Fold change vs veh, KIAA1704 /// LOC100996395 / RFU, ING1 / Fold change vs veh, ING1 / RFU, TRMT61B / Fold change vs veh, TRMT61B / RFU, FUBP3 / Fold change vs veh, FUBP3 / RFU, TP53 / Fold change vs veh, TP53 / RFU, TNKS2 / Fold change vs veh, TNKS2 / RFU, ZFP14 / Fold change vs veh, ZFP14 / RFU, ACTR2 / Fold change vs veh, ACTR2 / RFU, PPP3R1 / Fold change vs veh, PPP3R1 / RFU, PIK3R1 / Fold change vs veh, PIK3R1 / RFU, HNRNPA1 / Fold change vs veh, HNRNPA1 / RFU, RNF170 / Fold change vs veh, RNF170 / RFU, ZNF28 / Fold change vs veh, ZNF28 / RFU, RNGTT / Fold change vs veh, RNGTT / RFU, OGT / Fold change vs veh, OGT / RFU, BRD1 / Fold change vs veh, BRD1 / RFU, MARS / Fold change vs veh, MARS / RFU, ZNF655 / Fold change vs veh, ZNF655 / RFU, FAHD1 / Fold change vs veh, FAHD1 / RFU, BDP1 / Fold change vs veh, BDP1 / RFU, LRRCC1 / Fold change vs veh, LRRCC1 / RFU, ARID1A / Fold change vs veh, ARID1A / RFU, ZNF146 / Fold change vs veh, ZNF146 / RFU, ZNF330 / Fold change vs veh, ZNF330 / RFU, GPN3 / Fold change vs veh, GPN3 / RFU, C9orf123 / Fold change vs veh, C9orf123 / RFU, N4BP2L2 / Fold change vs veh, N4BP2L2 / RFU, ARFIP1 / Fold change vs veh, ARFIP1 / RFU, FAM179B / Fold change vs veh, FAM179B / RFU, BCL10 / Fold change vs veh, BCL10 / RFU, UHRF1BP1L / Fold change vs veh, UHRF1BP1L / RFU, BET1 / Fold change vs veh, BET1 / RFU, CNOT2 / Fold change vs veh, CNOT2 / RFU, ZNF268 / Fold change vs veh, ZNF268 / Fold change vs veh, ZNF507 / RFU, DGCR2 / Fold change vs veh, DGCR2 / RFU, WDSUB1 / Fold change vs veh, WDSUB1 / Fold change vs veh, HSP90B1 /// MIR3652 / RFU, ADSS / Fold change vs veh, ADSS / RFU, GK / Fold change vs veh, GK / RFU, ZNF148 / Fold change vs veh, ZNF148 / RFU, TAF9 / Fold change vs veh, TAF9 / RFU, SLC1A5 / Fold change vs veh, SLC1A5 / RFU, SLMO2 / Fold change vs veh, SLMO2 / RFU, ABCC4 / Fold change vs veh, ABCC4 / RFU, LOC101060439 /// RAP1B / Fold change vs veh, LOC101060439 /// RAP1B / RFU, RFX7 / Fold change vs veh, RFX7 / RFU, GTPBP10 / Fold change vs veh, GTPBP10 / RFU, CNEP1R1 / Fold change vs veh, CNEP1R1 / RFU, BIVM-ERCC5 /// ERCC5 / Fold change vs veh, BIVM-ERCC5 /// ERCC5 / RFU, ILF3 / Fold change vs veh, ILF3 / RFU 11762660_at / Fold change /veh 11762660_at / RFU VCAN (11757783_s_at) / Fold change /veh VCAN (11757783_s_at) / RFU DDX43 (11728927_at) / Fold change /veh DDX43 (11728927_at) / RFU KRT8 (11758188_x_at) / Fold change /veh KRT8 (11758188_x_at) / RFU NKD1 (11759106_at) / Fold change /veh NKD1 (11759106_at) / RFU SRD5A1 (11742802_a_at) / Fold change /veh SRD5A1 (11742802_a_at) / RFU TPSAB1 /// TPSB2 (11721975_s_at) / Fold change /veh TPSAB1 /// TPSB2 (11721975_s_at) / RFU GSTM3 (11746129_a_at) / Fold change /veh GSTM3 (11746129_a_at) / RFU IL23R (11737362_x_at) / Fold change /veh IL23R (11737362_x_at) / RFU TMEM51 (11727254_a_at) / Fold change /veh TMEM51 (11727254_a_at) / RFU PIWIL2 (11732686_x_at) / Fold change /veh PIWIL2 (11732686_x_at) / RFU ORM1 (11744905_x_at) / Fold change /veh ORM1 (11744905_x_at) / RFU CCDC152 (11743942_at) / Fold change /veh CCDC152 (11743942_at) / RFU ECM1 (11717891_a_at) / Fold change /veh ECM1 (11717891_a_at) / RFU IL23R (11748794_a_at) / Fold change /veh IL23R (11748794_a_at) / RFU TNFAIP8L3 (11732012_x_at) / Fold change /veh TNFAIP8L3 (11732012_x_at) / RFU MBOAT4 (11741988_at) / Fold change /veh MBOAT4 (11741988_at) / RFU 11764193_at / Fold change /veh 11764193_at / RFU TMEM53 (11763286_at) / Fold change /veh TMEM53 (11763286_at) / RFU MAGEB2 (11727129_at) / Fold change /veh MAGEB2 (11727129_at) / RFU TMEM200A (11744735_a_at) / Fold change /veh TMEM200A (11744735_a_at) / RFU CCDC152 (11751479_a_at) / Fold change /veh CCDC152 (11751479_a_at) / RFU FAM211A (11726209_a_at) / Fold change /veh FAM211A (11726209_a_at) / RFU RGS16 (11746705_a_at) / Fold change /veh RGS16 (11746705_a_at) / RFU VCAN (11755009_s_at) / Fold change /veh VCAN (11755009_s_at) / RFU RHOB (11743442_s_at) / Fold change /veh RHOB (11743442_s_at) / RFU RGS16 (11720943_a_at) / Fold change /veh RGS16 (11720943_a_at) / RFU RGS16 (11720944_at) / Fold change /veh RGS16 (11720944_at) / RFU, VPS4B / Fold change vs veh, VPS4B / RFU, CREB1 / Fold change vs veh, CREB1 / RFU, DNAJC13 / Fold change vs veh, DNAJC13 / RFU, GNAQ / Fold change vs veh, GNAQ / RFU, CDK5R1 / Fold change vs veh, CDK5R1 / RFU, ZRANB3 / Fold change vs veh, ZRANB3 / RFU, CUL4A / Fold change vs veh, CUL4A / RFU, CCNY / Fold change vs veh, CCNY / RFU, UFL1 / Fold change vs veh, UFL1 / RFU, COG3 / Fold change vs veh, COG3 / RFU, DIAPH2 / Fold change vs veh, DIAPH2 / RFU, SKA2 / Fold change vs veh, SKA2 / RFU, AFF3 / Fold change vs veh, AFF3 / RFU, LMF1 / Fold change vs veh, LMF1 / RFU, IPO11 / Fold change vs veh, IPO11 / RFU, DFFB / Fold change vs veh, DFFB / RFU, FOXP1 / Fold change vs veh, FOXP1 / RFU, CARD8 / Fold change vs veh, CARD8 / RFU, STRN3 / Fold change vs veh, STRN3 / RFU, ADK / Fold change vs veh, ADK / RFU, RASSF2 / Fold change vs veh, RASSF2 / RFU, WIPF1 / Fold change vs veh, WIPF1 / RFU, LARP1B / Fold change vs veh, LARP1B / RFU, RASA1 / Fold change vs veh, RASA1 / RFU, RB1 / Fold change vs veh, RB1 / RFU, PPFIA1 / Fold change vs veh, PPFIA1 / RFU, MAT2A / Fold change vs veh, MAT2A / RFU, CCT5 / Fold change vs veh, CCT5 / RFU, WDR92 / Fold change vs veh, WDR92 / RFU, CUX1 / Fold change vs veh, CUX1 / RFU, TTC7A / Fold change vs veh, TTC7A / RFU, TMEM135 / Fold change vs veh, TMEM135 / RFU, DEPTOR / Fold change vs veh, DEPTOR / RFU, CPM / Fold change vs veh, CPM / RFU, DNAJB6 / Fold change vs veh, DNAJB6 / RFU, CACNA2D3 / Fold change vs veh, CACNA2D3 / RFU, DTX4 / Fold change vs veh, DTX4 / RFU, TFCP2 / Fold change vs veh, TFCP2 / RFU, GMCL1 /// GMCL1P1 / Fold change vs veh, GMCL1 /// GMCL1P1 / RFU, AEBP2 / Fold change vs veh, AEBP2 / RFU, SNHG1 /// SNORD22 /// SNORD25 /// SNORD26 /// SNORD27 /// SNORD28 /// SNORD29 /// SNORD31 / Fold change vs veh, SNHG1 /// SNORD22 /// SNORD25 /// SNORD26 /// SNORD27 /// SNORD28 /// SNORD29 /// SNORD31 / Fold change (Aza/veh), C12orf56 (ProbeSet 11735607_a_at) / Fold change (ACY-1035/veh), C12orf56 (ProbeSet 11735607_a_at) / Fold change (Aza/veh), FGFR1OP (ProbeSet 11751329_s_at) / Fold change (ACY-1035/veh), FGFR1OP (ProbeSet 11751329_s_at) / Fold change (Aza/veh), VPS36 (ProbeSet 11739960_a_at) / Fold change (ACY-1035/veh), VPS36 (ProbeSet 11739960_a_at) / RFU SYPL1 (11715823_x_at) / Fold change /veh SYPL1 (11715823_x_at) / RFU IGFBP7 (11715501_s_at) / Fold change /veh IGFBP7 (11715501_s_at) / RFU REEP3 (11722064_at) / Fold change /veh REEP3 (11722064_at) / RFU IGLL1 (11728026_x_at) / Fold change /veh IGLL1 (11728026_x_at): dose or concentration left out as unconfirmed
Settings: ProbeSet 11758440_s_at; LIST B

For Nc1ccc(-c2cccs2)cc1NC(=O)c1ccc2c(c1)cc(C1CC1)n2CCN1CCOCC1 [ACY-1035], the “Fold change vs veh, RFX7” value was 0.90.
